In patent US20210030698A1, “GEL CONTAINING ZERUMBONE FROM BITTER GINGER (ZINGIBER ZERUMBET) FOR CURATIVE TREATMENT OF DIABETIC ULCERS” (INSTITUTO NACIONAL DE PESQUISAS DA AMAZÔNIA ? INPA, priority 2018, published 2021):

Experiments:
[1] = barbiturate sleep (sodium pentobarbital); format: in vivo; settings: sodium pentobarbital (nembutal)
rat paw edema = test: anti-inflammatory activity, carrageenan rat paw edema; format: in vivo; settings: croton oil and arachidonic acid models
Artemia salina = test: in vitro cytotoxicity test on Artemia salina
Method: In the in vitro cytotoxicity tests, zerumbone produced mortality for Artemia salina of CL50—45 ug/ml, showing a positive correlation between antitumor and anti-inflammatory activities.

mice [2] = test: analgesic activity in chemical and thermal models of pain (acetic acid, formalin, capsaicin); format: in vivo
mice [3] = test: hot plate test pain model; format: in vivo; settings: hot plate 49-54° C.

SMILES: C/C1=C\CC(C)(C)/C=C/C(=O)/C(C)=C/CC1 [zerumbone]
- barbiturate sleep recovery time (T.R) [1]: approximately 600 minutes
- anti-inflammatory effect, inhibition of carrageenan inflammatory response in rat paw edema (rat paw edema): significant and dose-dependent anti-inflammatory effects
- CL50 mortality for Artemia salina (Artemia salina): 45 µg/mL
- analgesic activity against pain models acetic acid, formalin and capsaicin (mice [2]; administered orally and intraperitoneally): significant, dose-dependent analgesic activity
- analgesic effect in chemical and thermal models of pain (mice [2]; doses of 250 to 1000 mg/kg, mice): potent analgesic effect
- latency of the animals in the hot plate test (mice [3]): significantly increased
